From article PMC7023430, “4-Aminobenzoic Acid Derivatives: Converting Folate Precursor to Antimicrobial and Cytotoxic Agents” (Biomolecules, 2019) come the findings set out here.

Values after ≈ are worked out from the molar mass of the structure shown. Read-outs that look alike come from different tables or passages of the source.

The subject of one series is HepG2 cells. As to the kind of experiment: Cytotoxicity, CellTiter 96 assay. The conditions noted are these: 24 h incubation. The class given is cell-based, human. The method, then:
HepG2, human hepatocellular carcinoma cells (ATCC HB-8065; passage 5–8) purchased from Health Protection Agency Culture Collections (ECACC, Salisbury, UK) were cultured in Minimum Essentials Eagle Medium supplemented with 10% fetal bovine serum, 1% L-glutamine solution and non-essential amino acid solution (Sigma-Aldrich, St. Louis, MO, USA) in a humidified atmosphere containing 5% CO2 at 37 °C. For subculturing, the cells were harvested after trypsin/EDTA (Sigma-Aldrich, St. Louis, USA) treatment at 37 °C. To evaluate cytotoxicity, the cells treated with the tested substances were used as experimental groups whereas untreated HepG2 cells served as control groups.
The cells were seeded in a density of 10 000 cells per well in a 96-well plate. The following day the cells were treated with each of the tested substances dissolved in DMSO (maximal incubation concentration of DMSO was 1% v/v). The tested substances were prepared at different incubation concentrations in triplicates according to their solubility. Simultaneously, the controls representing 100% cell viability, 0% cell viability (the cells treated with 10% DMSO), no cell control and vehiculum controls were also involved in triplicates. After 24 h incubation in a humidified atmosphere containing 5% CO2 at 37 °C, the reagent from the kit CellTiter 96 AQueous One Solution Cell Proliferation Assay (CellTiter 96; Promega, Fitchburg, WI, USA) was added. After 2 h incubation at 37 °C absorbance of samples was recorded at 490 nm (TECAN, Infinita M200, Grödig, Austria). A standard toxicological parameter IC50 was calculated by nonlinear regression from a semilogarithmic plot of incubation concentration versus percentage of absorbance relative to untreated controls using GraphPad Prism software (version 6; GraphPad Software, Inc., La Jolla, CA, USA).
The CellTiter 96 assay used is based on the reduction of tetrazolium dye in living cells to formazan, which is then determined colorimetrically. This reduction is related to availability of NADH or NADPH. The decline in levels of these metabolically important compounds in the cell causes that the production of formazan is reduced. For quantitative comparison of cytotoxicity, the parameter IC50 was used.

The subject of series [1] is Candida albicans ATCC 44859. As to the kind of experiment: Antifungal microdilution broth method, C. albicans. It is filed as cell-based. Here is the method:
(§1) The antifungal properties were evaluated against five yeast strains, namely: Candida albicans ATCC 44859, Candida tropicalis 156, Candida krusei […], Candida glabrata 20/I, Trichosporon […] 1188 and three strains of filamentous fungi: Aspergillus fumigatus 231, Lichtheimia corymbifera 272, and Trichophyton interdigitale 445. A microdilution broth method was performed according to EUCAST II, III instructions with slight modifications. Briefly, tested compounds were dissolved in DMSO and diluted in a twofold manner with RPMI-1640 medium with L-glutamine, supplemented with 2% glucose (w/v) and buffered to pH 7.0 with 3 morpholinopropane-1-sulfonic acid (all components were purchased from Sigma-Aldrich, USA). […] Positive controls consisted of test microbe solely, while negative controls consisted of medium and DMSO. Internal quality control was included too. Visual inspection was used for MIC endpoints evaluation. The experiments were conducted in duplicates. For the results to be valid, the difference in MIC determined from two parallel measurements must not be greater than one step on the dilution scale. PABA and triazole antimycotic drug fluconazole were involved as the reference compounds.
(In broth dilution the organism is exposed to a series of concentrations in liquid medium.)

For a further series, the system named is Candida tropicalis 156. As to the kind of experiment: Antifungal microdilution broth method, C. tropicalis. It is filed as cell-based. Here is the method:
as §1

The test system of a further series is Candida krusei E28. As to the kind of experiment: Antifungal microdilution broth method, C. krusei. The class given is cell-based. The conditions noted are these: Pichia kudriavzevii. Here is the method: as §1
In the next series the test system is Candida glabrata 20/I. As to the kind of experiment: Antifungal microdilution broth method, C. glabrata. The class given is cell-based. The conditions noted are these: Nakaseomyces glabratus. The method, then: as §1
The test system of a further series is Trichosporon asahii 1188. As to the kind of experiment: Antifungal microdilution broth method, T. asahii. It is filed as cell-based. Here is the method: as §1
For series [2], the system named is Aspergillus fumigatus 231. As to the kind of experiment: Antifungal microdilution broth method, A. fumigatus. The class given is cell-based. The method, then: as §1
Series [3] relates to Lichtheimia corymbifera 272. As to the kind of experiment: Antifungal microdilution broth method, L. corymbifera. It is filed as cell-based. Here is the method: as §1
For series [4], the system named is Trichophyton interdigitale 445. As to the kind of experiment: Antifungal microdilution broth method, T. interdigitale. The class given is cell-based. The method, then: as §1
Series [5] concerns Mycobacterium tuberculosis H37Rv (331/88). As to the kind of experiment: Antimycobacterial micromethod in Šula's medium, M. tuberculosis. It is filed as cell-based.
Series [6] has as its system Mycobacterium avium 330/88. As to the kind of experiment: Antimycobacterial micromethod in Šula's medium, M. avium. It is filed as cell-based.
Series [7] has as its system Mycobacterium kansasii 235/80. As to the kind of experiment: Antimycobacterial micromethod in Šula's medium, M. kansasii 235/80. The class given is cell-based.
Series [8] concerns M. kansasii 6509/96 (clinical isolate). As to the kind of experiment: Antimycobacterial micromethod in Šula's medium, M. kansasii 6509/96. It is filed as cell-based. The settings on record: Mycobacterium kansasii.
Series [9] has as its system Escherichia coli ATCC 25922, CCM 3954. As to the kind of experiment: Antibacterial microdilution broth method, E. coli. It is filed as cell-based.
Series [10] deals with Pseudomonas aeruginosa ATCC 27853, CCM 3955. As to the kind of experiment: Antibacterial microdilution broth method, P. aeruginosa. The class given is cell-based. The conditions noted are these: P. aeruginosa.
Series [11] has as its system methicillin-resistant Staphylococcus aureus ATCC 43300, CCM 4750 (MRSA). As to the kind of experiment: Antibacterial microdilution broth method, MRSA. It is filed as cell-based.
Series [12] deals with Staphylococcus epidermidis H 6966/08. As to the kind of experiment: Antibacterial microdilution broth method, S. epidermidis. The conditions noted are these: S. epidermidis. It is filed as cell-based.
Series [13] concerns Enterococcus faecalis ATCC 29212, CCM 4224. As to the kind of experiment: Antibacterial microdilution broth method, E. faecalis. The class given is cell-based.
Series [14] deals with ESBL-positive Klebsiella pneumoniae J 14368/08. The conditions noted are these: ESBL-positive K. pneumoniae.
Series [15] relates to Klebsiella pneumoniae D 11750/08. As to the kind of experiment: Antibacterial microdilution broth method, K. pneumoniae. The settings on record: K. pneumoniae D 11750/08.
Setting [16] is: 24 h incubation, read-out: MIC EC 24 h.
Where [17] appears, read: 48 h incubation, read-out: MIC EC 48 h.
[18] abbreviates: 24 h incubation, read-out: MIC PA 24 h.
Setting [19] is: 48 h incubation, read-out: MIC PA 48 h.

In general, IC50 refers to the concentration that inhibits the measured activity by half. The low end stands for higher potency, the high end for lower potency. The term MIC50 denotes an inhibitory concentration at the 50% level, which refers to growth in some studies and to a panel of isolates in others.

The compound `N.N.[Cl][Pt][Cl]` [Cisplatin, cisplatin, reference compound] returned an IC50 in the series with HepG2 cells of 21.3 µM.

In the case of `OC(Cn1cncn1)(Cn1cncn1)c1ccc(F)cc1F` [FLU, fluconazole, reference compound], the MIC50 was 0.24 µM (≈ 0.0735 µg/mL) in series [1] (ATCC44859, 24 h, fluconazole values mean MIC50, read-out: MIC50 CA 24 h); 0.24 µM (≈ 0.0735 µg/mL) in series [1] (ATCC44859, 48 h, fluconazole values mean MIC50, read-out: MIC50 CA 48 h); more than 500 µM with Candida tropicalis 156 (24 h, fluconazole values mean MIC50, read-out: MIC50 CT 24 h); more than 500 µM with Candida tropicalis 156 (48 h, fluconazole values mean MIC50, read-out: MIC50 CT 48 h); 125 µM (≈ 38.3 µg/mL) with Candida krusei E28 (24 h, fluconazole values mean MIC50, read-out: MIC50 CK 24 h); 250 µM (≈ 76.6 µg/mL) with Candida krusei E28 (48 h, fluconazole values mean MIC50, read-out: MIC50 CK 48 h). In addition, the MIC50 is 31.2 µM (≈ 9.57 µg/mL) with Candida glabrata 20/I (24 h, fluconazole values mean MIC50, read-out: MIC50 CG 24 h); 500 µM (≈ 153 µg/mL) with Candida glabrata 20/I (48 h, fluconazole values mean MIC50, read-out: MIC50 CG 48 h); 250 µM (≈ 76.6 µg/mL) with Trichosporon asahii 1188 (24 h, fluconazole values mean MIC50, read-out: MIC50 TA 24 h); 500 µM (≈ 153 µg/mL) in the series on Trichosporon asahii 1188 (48 h, fluconazole values mean MIC50, read-out: MIC50 TA 48 h); more than 500 µM in series [2] (24 h, fluconazole values mean MIC50, read-out: MIC50 AF 24 h); more than 500 µM in series [2] (48 h, fluconazole values mean MIC50, read-out: MIC50 AF 48 h). Also, the MIC50 was more than 500 µM in series [3] (24 h, fluconazole values mean MIC50, read-out: MIC50 LC 24 h); more than 500 µM in [3] (48 h, fluconazole values mean MIC50, read-out: MIC50 LC 48 h); 7.81 µM (≈ 2.39 µg/mL) in [4] (72 h, fluconazole values mean MIC50, read-out: MIC50 TI 72 h); 125 µM (≈ 38.3 µg/mL) in series [4] (120 h, fluconazole values mean MIC50, read-out: MIC50 TI 120 h).

On to `NNC(=O)c1ccncc1` [INH, isoniazid, reference compound], for which the MIC in series [5] (336 h, 14 days incubation at 37 °C, read-out: MIC Mtb. 331/88 14 d) is 0.5 µM (≈ 0.0686 µg/mL); in series [5] (504 h, 21 days incubation at 37 °C, read-out: MIC Mtb. 331/88 21 d), 1 µM (≈ 0.137 µg/mL); in series [6] (330/88, 336 h, 14 days incubation at 37 °C, read-out: MIC M. avium 330/88 14 d), more than 250 µM; in [6] (330/88, 504 h, 21 days incubation at 37 °C, read-out: MIC M. avium 330/88 21 d) it was more than 250 µM; in series [7] (235/80, 168 h, 7 days incubation at 37 °C, read-out: MIC M. kansasii 235/80 7 d), more than 250 µM; in [7] (235/80, 336 h, 14 days incubation at 37 °C, read-out: MIC M. kansasii 235/80 14 d), more than 250 µM. The MIC was more than 250 µM in series [7] (235/80, 504 h, 21 days incubation at 37 °C, read-out: MIC M. kansasii 235/80 21 d); 8 µM (≈ 1.1 µg/mL) in series [8] (168 h, 7 days incubation at 37 °C, read-out: MIC M. kansasii 6509/96 7 d); 8 µM (≈ 1.1 µg/mL) in series [8] (336 h, 14 days incubation at 37 °C, read-out: MIC M. kansasii 6509/96 14 d); 8 µM (≈ 1.1 µg/mL) in [8] (504 h, 21 days incubation at 37 °C, read-out: MIC M. kansasii 6509/96 21 d).

`NC[C@@H]1O[C@H](O[C@H]2[C@@H](O)[C@H](O[C@@H]3[C@@H](O)[C@H](N)C[C@H](N)[C@H]3O[C@H]3O[C@H](CN)[C@@H](O)[C@H](O)[C@H]3N)O[C@@H]2CO)[C@H](N)[C@@H](O)[C@@H]1O` [NEO, neomycin, reference compound]: the MIC in [9] (setting [16]) was found to be 3.9 µM (≈ 2.4 µg/mL); in [9] (setting [17]), 3.9 µM (≈ 2.4 µg/mL); in series [10] (setting [18]), 7.81 µM (≈ 4.8 µg/mL); in [10] (setting [19]) it was 15.62 µM (≈ 9.6 µg/mL).

As for bacitracin [reference compound], the MIC in series [11] (24 h incubation, read-out: MIC MRSA 24 h) is listed as 15.62 µM; in series [11] (48 h incubation, read-out: MIC MRSA 48 h), 15.62 µM; in series [12] (24 h incubation, read-out: MIC SE 24 h), 15.62 µM; in [12] (48 h incubation, read-out: MIC SE 48 h), 31.25 µM; in [13] (24 h incubation, read-out: MIC EF 24 h), 15.62 µM; in series [13] (48 h incubation, read-out: MIC EF 48 h), 62.5 µM. In addition, the MIC in [9] (setting [16]), in [9] (setting [17]), in series [10] (setting [18]) and in series [10] (setting [19]) was more than 500 µM throughout. Besides, the “MIC KP-E 24 h” value in [14] (24 h incubation) is reported as more than 500 µM. In [14] (48 h incubation), the “MIC KP-E 48 h” value was more than 500 µM. Besides, in series [15] (24 h incubation), the “MIC KP 24 h” value is recorded as more than 500 µM. Moreover, the “MIC KP 48 h” value in [15] (48 h incubation) is reported as more than 500 µM.
